Experimental data as given in the NIST ThermoML archive (doi:10.1021/acs.jced.8b00132).
Values joined by “and” are separate entries in the source; they are usually repeats but may differ in a detail not shown here. Equal entries are not always repeated.

O=C(C(F)(F)C(F)(F)F)C(F)(C(F)(F)F)C(F)(F)F [dodecafluoro-2-methylpentan-3-one]
Conditions	thermal conductivity
432.7 K, 49519 kPa, Liquid, transient hot wire	0.06451 W/m/K
432.71 K, 656 kPa, Gas, hot wire	0.02379 W/m/K
432.72 K, 1422 kPa, Gas, transient hot wire	0.02498 W/m/K
432.72 K, 49517 kPa, Liquid, transient hot wire	0.06454 W/m/K
432.77 K, 1418 kPa, Gas, transient hot wire	0.02496 W/m/K
432.77 K, 1419 kPa, Gas, transient hot wire	0.02504 W/m/K
432.79 K, 1709 kPa, Liquid, transient hot wire	0.03809 W/m/K
432.79 K, 34245 kPa, Liquid, transient hot wire	0.05883 W/m/K
432.8 K, 1709 kPa, Liquid, transient hot wire	0.03764 W/m/K
432.8 K, 1977 kPa, Liquid, transient hot wire	0.03806 W/m/K
432.81 K, 652 kPa, Gas, hot wire	0.02381 W/m/K
432.81 K, 655 kPa, Gas, hot wire	0.02367 W/m/K
432.81 K, 1704 kPa, Liquid, transient hot wire	0.03807 W/m/K
432.81 K, 1706 kPa, Liquid, transient hot wire	0.03761 W/m/K
432.81 K, 1977 kPa, Liquid, transient hot wire	0.03794 W/m/K
432.81 K, 22767 kPa, Liquid, transient hot wire	0.05368 W/m/K
432.82 K, 375 kPa, Gas, hot wire	0.02254 W/m/K
432.83 K, 376 kPa, Gas, hot wire	0.02257 W/m/K
432.83 K, 22777 kPa, Liquid, transient hot wire	0.05369 W/m/K
432.84 K, 2631 kPa, Liquid, transient hot wire	0.03896 W/m/K
432.84 K, 49496 kPa, Liquid, transient hot wire	0.06439 W/m/K
432.84 K, 49505 kPa, Liquid, transient hot wire	0.06438 W/m/K
432.86 K, 2631 kPa, Liquid, transient hot wire	0.03897 W/m/K
432.87 K, 158 kPa, Gas, hot wire	0.02102 W/m/K
432.87 K, 159 kPa, Gas, hot wire	0.02111 W/m/K
432.87 K, 3941 kPa, Liquid, transient hot wire	0.04063 W/m/K
432.88 K, 1297 kPa, Gas, transient hot wire	0.02344 W/m/K
432.88 K, 1298 kPa, Gas, transient hot wire	0.02358 W/m/K
432.88 K, 1418 kPa, Gas, transient hot wire	0.02521 W/m/K
432.9 K, 43 kPa, Gas, hot wire	0.02081 W/m/K
432.9 K, 650 kPa, Gas, hot wire	0.02367 W/m/K
432.91 K, 42 kPa, Gas, hot wire	0.02089 W/m/K
432.93 K, 374 kPa, Gas, hot wire	0.02268 W/m/K
432.93 K, 375 kPa, Gas, hot wire	0.02269 W/m/K
432.93 K, 1976 kPa, Liquid, transient hot wire	0.03821 W/m/K
432.93 K, 34232 kPa, Liquid, transient hot wire	0.05866 W/m/K
432.93 K, 34243 kPa, Liquid, transient hot wire	0.05865 W/m/K
432.94 K, 1977 kPa, Liquid, transient hot wire	0.03807 W/m/K
432.95 K, 1709 kPa, Liquid, transient hot wire	0.03814 W/m/K
432.98 K, 22754 kPa, Liquid, transient hot wire	0.05357 W/m/K
432.98 K, 49470 kPa, Liquid, transient hot wire	0.06431 W/m/K
432.99 K, 157 kPa, Gas, hot wire	0.02107 W/m/K and 0.02099 W/m/K
432.99 K, 1298 kPa, Gas, transient hot wire	0.02366 W/m/K
433 K, 1299 kPa, Gas, transient hot wire	0.02363 W/m/K
433 K, 6150 kPa, Liquid, transient hot wire	0.04309 W/m/K
433 K, 15091 kPa, Liquid, transient hot wire	0.04962 W/m/K
433 K, 15095 kPa, Liquid, transient hot wire	0.04957 W/m/K
433.01 K, 43 kPa, Gas, hot wire	0.02102 W/m/K and 0.02104 W/m/K
433.02 K, 647 kPa, Gas, hot wire	0.02339 W/m/K
433.02 K, 648 kPa, Gas, hot wire	0.02337 W/m/K
433.02 K, 6152 kPa, Liquid, transient hot wire	0.04303 W/m/K
433.03 K, 3941 kPa, Liquid, transient hot wire	0.04082 W/m/K
433.04 K, 373 kPa, Gas, hot wire	0.02274 W/m/K
433.04 K, 2629 kPa, Liquid, transient hot wire	0.03906 W/m/K
433.04 K, 2631 kPa, Liquid, transient hot wire	0.03946 W/m/K
433.05 K, 372 kPa, Gas, hot wire	0.02268 W/m/K
433.05 K, 3942 kPa, Liquid, transient hot wire	0.04075 W/m/K
433.08 K, 34226 kPa, Liquid, transient hot wire	0.05871 W/m/K
433.08 K, 34233 kPa, Liquid, transient hot wire	0.05874 W/m/K
433.11 K, 155 kPa, Gas, hot wire	0.02111 W/m/K
433.12 K, 156 kPa, Gas, hot wire	0.02101 W/m/K
433.12 K, 646 kPa, Gas, hot wire	0.02323 W/m/K
433.12 K, 9670 kPa, Liquid, transient hot wire	0.04595 W/m/K
433.12 K, 9671 kPa, Liquid, transient hot wire	0.04584 W/m/K
433.12 K, 49466 kPa, Liquid, transient hot wire	0.06434 W/m/K
433.13 K, 43 kPa, Gas, hot wire	0.02102 W/m/K
433.13 K, 644 kPa, Gas, hot wire	0.02306 W/m/K
433.13 K, 22732 kPa, Liquid, transient hot wire	0.05371 W/m/K
433.13 K, 22752 kPa, Liquid, transient hot wire	0.05367 W/m/K
433.13 K, 49459 kPa, Liquid, transient hot wire	0.06442 W/m/K
433.14 K, 43 kPa, Gas, hot wire	0.02099 W/m/K
433.14 K, 1300 kPa, Gas, transient hot wire	0.02391 W/m/K
433.16 K, 372 kPa, Gas, hot wire	0.02272 W/m/K and 0.02276 W/m/K
433.16 K, 15084 kPa, Liquid, transient hot wire	0.04944 W/m/K
433.19 K, 6155 kPa, Liquid, transient hot wire	0.04297 W/m/K
433.19 K, 6159 kPa, Liquid, transient hot wire	0.04336 W/m/K
433.19 K, 15094 kPa, Liquid, transient hot wire	0.04947 W/m/K
433.21 K, 1138 kPa, Gas, transient hot wire	0.02265 W/m/K and 0.02278 W/m/K
433.24 K, 155 kPa, Gas, hot wire	0.02111 W/m/K
433.24 K, 1299 kPa, Gas, transient hot wire	0.02422 W/m/K
433.24 K, 3943 kPa, Liquid, transient hot wire	0.04078 W/m/K
433.24 K, 3944 kPa, Liquid, transient hot wire	0.04039 W/m/K
433.24 K, 34207 kPa, Liquid, transient hot wire	0.05868 W/m/K
433.24 K, 34211 kPa, Liquid, transient hot wire	0.05857 W/m/K
